# Reference: publication PMC9747611 (Hypertension Research, 2022)
# Assay: Safety: adverse events, ECG, vital signs
# Format: in vivo, human
# Experimental: Plasma PD measures included concentrations of aldosterone, 18-hydroxycorticosterone, corticosterone, 11-deoxycorticosterone, cortisol (free and total), 11-deoxycortisol, ACTH, sodium, chloride, and potassium. AUCs were calculated using a noncompartmental analysis and the linear trapezoidal/linear interpolation method. Urine PD measures included concentrations of aldosterone, cortisol (free and total), tetrahydroaldosterone, sodium, chloride, potassium, creatinine, and phosphorus. Other PD measures were seated, orthostatic, and positional changes in vital signs, as well as changes in body weight and BMI. Safety assessments involved adverse events, physical examinations, ECGs, orthostatic vital signs, and clinical laboratory evaluations.
# Subjects who received placebo were pooled into 2 treatment groups: placebo with low-salt diet and placebo with normal-salt diet. Descriptive statistics were calculated for PK, PD, and safety measures. […] Data are presented as change from baseline in least squares mean (90% CI) AUC0-12h of plasma aldosterone on days 1 and 10. The results of the exploratory dose proportionality power model were assessed using the Smith criteria (0.9031, 1.0969) and the less stringent Hummel criteria (0.6990, 1.3010).
# [1] = 0.5 mg once daily 10 days, normal-salt diet, n = 9
# [2] = 1.5 mg once daily 10 days, normal-salt diet, n = 9
# [3] = 2.5 mg once daily 10 days, low-salt diet, n = 9
# [4] = 2.5 mg once daily 10 days, normal-salt diet, n = 6
# [5] = 5.0 mg once daily 10 days, low-salt diet, n = 9
# [6] = 0.5-5.0 mg once daily for 10 days
smiles,measurement,setting,value
CCC(=O)N[C@@H]1CCCc2c(-c3ccc4c(c3)CCC(=O)N4C)cncc21 [baxdrostat],Abdominal pain,[1],0 (0.0) n (%)
same,Anxiety,[1],0 (0.0) n (%)
same,Any AE,[1],1 (11.1) n (%)
same,Any TEAE,[1],1 (11.1) n (%)
same,Any TEAE leading to death,[1],0 (0.0) n (%)
same,Any TEAE leading to discontinuation,[1],0 (0.0) n (%)
same,Any drug-related treatment-emergent SAE,[1],0 (0.0) n (%)
same,Any treatment-emergent SAE,[1],0 (0.0) n (%)
same,Back pain,[1],0 (0.0) n (%)
same,Constipation,[1],0 (0.0) n (%)
same,Dizziness,[1],0 (0.0) n (%)
same,Dizziness postural,[1],0 (0.0) n (%)
same,Dry throat,[1],0 (0.0) n (%)
same,Dysphonia,[1],0 (0.0) n (%)
same,Eye irritation,[1],0 (0.0) n (%)
same,Headache,[1],1 (11.1) n (%)
same,Nausea,[1],0 (0.0) n (%)
same,Palpitations,[1],0 (0.0) n (%)
same,Presyncope,[1],0 (0.0) n (%)
same,Rhinitis,[1],0 (0.0) n (%)
same,Ventricular tachycardia,[1],0 (0.0) n (%)
same,Viral infection,[1],0 (0.0) n (%)
same,Abdominal pain,[2],0 (0.0) n (%)
same,Anxiety,[2],0 (0.0) n (%)
same,Any AE,[2],1 (11.1) n (%)
same,Any TEAE,[2],1 (11.1) n (%)
same,Any TEAE leading to death,[2],0 (0.0) n (%)
same,Any TEAE leading to discontinuation,[2],0 (0.0) n (%)
same,Any drug-related treatment-emergent SAE,[2],0 (0.0) n (%)
same,Any treatment-emergent SAE,[2],0 (0.0) n (%)
same,Back pain,[2],0 (0.0) n (%)
same,Constipation,[2],1 (11.1) n (%)
same,Dizziness,[2],0 (0.0) n (%)
same,Dizziness postural,[2],0 (0.0) n (%)
same,Dry throat,[2],0 (0.0) n (%)
same,Dysphonia,[2],0 (0.0) n (%)
same,Eye irritation,[2],0 (0.0) n (%)
same,Headache,[2],0 (0.0) n (%)
same,Nausea,[2],0 (0.0) n (%)
same,Palpitations,[2],0 (0.0) n (%)
same,Presyncope,[2],0 (0.0) n (%)
same,Rhinitis,[2],0 (0.0) n (%)
same,Ventricular tachycardia,[2],0 (0.0) n (%)
same,Viral infection,[2],0 (0.0) n (%)
same,Abdominal pain,[3],0 (0.0) n (%)
same,Anxiety,[3],0 (0.0) n (%)
same,Any AE,[3],3 (33.3) n (%)
same,Any TEAE,[3],3 (33.3) n (%)
same,Any TEAE leading to death,[3],0 (0.0) n (%)
same,Any TEAE leading to discontinuation,[3],0 (0.0) n (%)
same,Any drug-related treatment-emergent SAE,[3],0 (0.0) n (%)
same,Any treatment-emergent SAE,[3],0 (0.0) n (%)
same,Back pain,[3],0 (0.0) n (%)
same,Constipation,[3],0 (0.0) n (%)
same,Dizziness,[3],0 (0.0) n (%)
same,Dizziness postural,[3],1 (11.1) n (%)
same,Dry throat,[3],0 (0.0) n (%)
same,Dysphonia,[3],0 (0.0) n (%)
same,Eye irritation,[3],0 (0.0) n (%)
same,Headache,[3],1 (11.1) n (%)
same,Nausea,[3],0 (0.0) n (%)
same,Palpitations,[3],0 (0.0) n (%)
same,Presyncope,[3],1 (11.1) n (%)
same,Rhinitis,[3],0 (0.0) n (%)
same,Ventricular tachycardia,[3],0 (0.0) n (%)
same,Viral infection,[3],1 (11.1) n (%)
same,Abdominal pain,[4],0 (0.0) n (%)
same,Anxiety,[4],1 (16.7) n (%)
same,Any AE,[4],3 (50.0) n (%)
same,Any TEAE,[4],3 (50.0) n (%)
same,Any TEAE leading to death,[4],0 (0.0) n (%)
same,Any TEAE leading to discontinuation,[4],0 (0.0) n (%)
same,Any drug-related treatment-emergent SAE,[4],0 (0.0) n (%)
same,Any treatment-emergent SAE,[4],0 (0.0) n (%)
same,Back pain,[4],0 (0.0) n (%)
same,Constipation,[4],0 (0.0) n (%)
same,Dizziness,[4],1 (16.7) n (%)
same,Dizziness postural,[4],2 (33.3) n (%)
same,Dry throat,[4],1 (16.7) n (%)
same,Dysphonia,[4],0 (0.0) n (%)
same,Eye irritation,[4],1 (16.7) n (%)
same,Headache,[4],1 (16.7) n (%)
same,Nausea,[4],0 (0.0) n (%)
same,Palpitations,[4],0 (0.0) n (%)
same,Presyncope,[4],0 (0.0) n (%)
same,Rhinitis,[4],1 (16.7) n (%)
same,Ventricular tachycardia,[4],0 (0.0) n (%)
same,Viral infection,[4],0 (0.0) n (%)
same,Abdominal pain,[5],1 (11.1) n (%)
same,Anxiety,[5],0 (0.0) n (%)
same,Any AE,[5],3 (33.3) n (%)
same,Any TEAE,[5],3 (33.3) n (%)
same,Any TEAE leading to death,[5],0 (0.0) n (%)
same,Any TEAE leading to discontinuation,[5],0 (0.0) n (%)
same,Any drug-related treatment-emergent SAE,[5],0 (0.0) n (%)
same,Any treatment-emergent SAE,[5],0 (0.0) n (%)
same,Back pain,[5],1 (11.1) n (%)
same,Constipation,[5],0 (0.0) n (%)
same,Dizziness,[5],1 (11.1) n (%)
same,Dizziness postural,[5],0 (0.0) n (%)
same,Dry throat,[5],0 (0.0) n (%)
same,Dysphonia,[5],1 (11.1) n (%)
same,Eye irritation,[5],0 (0.0) n (%)
same,Headache,[5],1 (11.1) n (%)
same,Nausea,[5],0 (0.0) n (%)
same,Palpitations,[5],0 (0.0) n (%)
same,Presyncope,[5],0 (0.0) n (%)
same,Rhinitis,[5],0 (0.0) n (%)
same,Ventricular tachycardia,[5],0 (0.0) n (%)
same,Viral infection,[5],0 (0.0) n (%)
same,QT prolongation (electrocardiograms),[6],no QT prolongation
same,changes in seated heart rate or BP,[6],no clinically significant changes
same,subjects with a TEAE considered related to the study drug,all baxdrostat groups pooled,6 (14.3%)
same,severity of TEAEs,all subjects receiving baxdrostat,mild
